Data as given in PMC11755785 (Langmuir, 2025).

Key:
[1] = Photostability under solar light, UV–vis spectra; format: physicochemical; settings: solar light 4 h; 50 μM; presence or absence of β-CD
Method: The photostability of the drug under solar light was evaluated using UV–vis spectral measurements. Sample solutions were exposed to solar light outdoors at a sunny location on a latitude of 35.92° N and a longitude of 139.91° E for 4 h, from 12:00 to 16:00, at an average temperature of 284.55 K.

[2] = Phase-solubility diagram with HP-β-CD; format: physicochemical; design: stability constant K1:2 with HP-β-CD: unit not given here
[3] = cited from earlier work
[4] = UVA1 (365 nm) photodegradation in aqueous buffer, UV–vis spectra / RP-HPLC; format: physicochemical; settings: for UVA1 photodegradation (spectral change): 50 μM, aqueous; for diketo increase to the keto-enol decrease: UVA1 365 nm
Method: (§1) The samples were obtained after passage for appropriate periods and measured using an UV–vis spectrophotometer in the maximum range between 200 and 700 nm (arranged on demand) from long wavelengths toward short wavelengths to avoid unnecessary irradiation of the UV region. To obtain HPLC chromatograms, aliquots of the UV-irradiated solution were obtained by pipetting at 0, 1/5, 1/2, 1, 2, 3, 4, 24, 48, 72, 96, 120, 144, and 168 h for AVB and at 0, 1, 2, 3, and 18 h for CUR. To obtain those of OXB in the absence or presence of β-CD, the invariable samples were certified at 0 and 48 h. For the samples in acetonitrile aqueous solution or methanol aqueous solution at a ratio of 7:3, the time evolution of the UVA1 irradiated solution was examined under similar conditions.

[5] = UVA1 (365 nm) photodegradation in isochoric acetonitrile/water solvent; format: physicochemical; settings: UVA1 365 nm, 25 μM
Method: as §1

[6] = Phase-solubility diagram with β-CD
Method: The solutions were mechanically shaken at 298 K in a thermostatic chamber, and the supernatant was sampled and filtered after passage for appropriate periods. The concentration of the drug in the supernatant was determined using HPLC.
The phase-solubility diagram consists of the equilibrium concentration of the guest drug as the ordinate and the total concentration of the host CD as the abscissa.[45] If a straight line and parabolic curve can be approximated on the phase-solubility diagram, then, the curves are classified as AL- and AP-types in the Higuchi and Connors catalogs, respectively.[45],[46]
Multiple regression analysis of the measured data set to the total concentration of the host ([CD]) and its squares ([CD]^2) using eq 3 can be used to obtain the stability constants for a combination of the equimolar complex K1:1 and double-host associating complex K1:2.[45],[46] [drawing 3] 3 This is the sum of the dissociated (free) and associated (complexed) drug concentrations. Although the Benesi–Hildebrand equation with the square of the host concentration has been used for parabolic correlations, its validity remains unclear.
This curve is classified as the AN-type on the Higuchi and Connors catalog.[45]−[48] The curve is described by eq 4′ according to the Langmuir adsorption isotherm model.[47]−[51] To process with the linear regression analysis of ordinate ([CD]/γ) referred to abscissa ([CD]), the Hanes–Woolf expression in eq 4′ may be used [drawing 4] 4 [drawing 5] 4′ where n indicates the asymptotic concentration of the drug associated with CD (saturation, maximal γ) and K is equivalent to the drug/CD complex stability constant. […] The stoichiometry of a complex of drugs with CD is difficult to determine; the prevailing opinion is that more than one guest molecule incorporates a host molecule and that hydration or ionization of the guest regulates the solubility of the complex.[46]
Szejtili[46] stated that, in rare cases, the ascending region at lower host concentrations is followed by a plateau region, similar to that of the AN-type saturation curve. Simultaneously, it terminates at any host concentration threshold. It is named the BS-type in the Higuchi and Connors catalog,[45]−[48] and for concentrations higher than the threshold, the guest concentration decreases along a hyperbola, probably according to the solubility product KSP.[49] To analyze this type of pattern, a hypothesis that is yet to be discussed is required.[52] […] At the threshold concentration of CD, the scale of the aggregated dispersoids transcends an upper limit, and the aggregation induces subsequent sedimentation.[52] Thus, the solubility product may be considered a property of poorly soluble aggregated dispersoids containing a tolerable amount of the drug and an excess amount of CD.

[7] = 1H NMR titration of keto-enol and diketo tautomeric species; format: physicochemical
Method: ^1H NMR measurements were conducted using a 400 MHz NMR spectrometer (JNM-ECZ 400 S, Japan Electronics Co., Ltd., Tokyo, Japan). Sample solutions were prepared using D2O and methanol-d4 as the protic solvent, acetonitrile-d3 as the aprotic solvent, and their mixtures, with sample concentrations exceeding 1.5% (w/v). The chemical shifts of the samples were calibrated using the internal tetramethylsilane (TMS) signal as the zero point, whereas the solvent signals in the literature served as reference points. When sodium salts were required, the neutral AVB species in D2O were dissolved in equimolar amounts of aqueous NaOH and methanol-d4, followed by drying under reduced pressure in a rotary evaporator and heating to dryness below Tm of the sodium salts. The formation of sodium salts was confirmed by measuring Tm using a differential scanning calorimeter (DSC8230, Rigaku Co., Ltd., Tokyo, Japan).
In the one-dimensional (1D) ^1H NMR spectra, the integral intensities correspond to the relative stoichiometry of protons for the species, except for the signals assigned to the stable isotopes of deuterated solvents. We could recognize the aromatic proton signals of AVB, but the corresponding signals sometimes overlapped between its keto-enol and diketo species, depending upon the solvent composition. The signals of the aromatic protons at the para positions to the keto/enol substituents were neglected because of the high probability of overlap, in which the chemical shift drifts, Δδ, related to the shielding effect are not noticeably accompanied by the electronic states in the keto/enol substituents.
We chose the signals of the aromatic protons at the ortho positions and the aliphatic protons at the ortho substituents (tert-butyl and methoxy groups) to keto/enol substituents and measured their integral intensities. Using the simultaneous equations built as linear combinations of integral values for the isolated and overlapping signals, we determined the molar ratio of the keto-enol and diketo species.

[8] = 25 mM Pi/NaOH buffer pH 6.8, 298 K, Figure 2, in M-1 (unit assumed)
[9] = regression with 2-order equation, pH 6.8
[10] = 70% methanol (methanol-d4/D2O = 7:3)
[11] = isochoric acetonitrile/water solvent

p-tert-butyl-p-methoxydibenzoylmethane [AVB]
stability under solar light compared to UVA1 irradiation [1]: no significant changes in stability | stability constant K1:2 with HP-β-CD ([2]; 25 mM Pi/NaOH buffer pH 6.8, 298 K, Figure 2): 40.4 | stability constant K1:1 with HP-β-CD [2, 8]: 90.3 | stability constant K1:1 with HP-β-CD (equimolar complex) [2, 9]: 90.3 L/mol | stability constant K1:2 with HP-β-CD (1:2-ratio complex) [2, 9]: 40.4 L^2/mol^2 | log Kow ([3]; Chart 1): 4.51 | reported log P [3]: 4.51 | reported pKa [3]: 9.7 | partition coefficient log KOW ([3]; introduction, reference not given): 4.51 | UVA1 photodegradation (spectral change) ([4]; absence of β-CD): gradually photodegraded | UVA1 photodegradation (spectral change) ([4]; presence of β-CD): insignificantly degraded | diketo increase to the keto-enol decrease ([4]; 25 μM β-CD): 20.1% | diketo increase to the keto-enol decrease ([4]; 4 mM β-CD): 23.9% | diketo increase to the keto-enol decrease ([4]; no β-CD): 19.3% | effect of equimolar and 4 mM β-CD on photodegradation velocity / first-order rate [5]: reduced the photodegradation velocity | stability constant K1:1 with β-CD [6, 8]: 1023 | stability constant K1:1 with β-CD ([6]; equimolar complex, pH 6.8): 1023 L/mol | molar ratio of diketo species [7, 10]: 15.3% | molar ratio of keto-enol species [7, 10]: 84.7% | molar ratio of diketo species [7, 11]: 9.3% | molar ratio of keto-enol species [7, 11]: 90.7%
